This is an account of results in patent publication US9926302B2, “Heteroaryl substituted heterocyclyl sulfones” (priority 2014, dated 2018).

In the first experiment the target is T1, Human CaV2.2 channels (Homo sapiens, UniProt Q00975).
T1 construct: expressed in transfected cells
T1 sequence (P54289 947-1103): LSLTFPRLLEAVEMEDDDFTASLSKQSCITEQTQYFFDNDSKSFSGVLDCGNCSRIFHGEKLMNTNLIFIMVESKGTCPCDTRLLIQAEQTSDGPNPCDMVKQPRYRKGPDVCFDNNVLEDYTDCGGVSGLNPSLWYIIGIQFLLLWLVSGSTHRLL
T1 sequence (P54289 25-946): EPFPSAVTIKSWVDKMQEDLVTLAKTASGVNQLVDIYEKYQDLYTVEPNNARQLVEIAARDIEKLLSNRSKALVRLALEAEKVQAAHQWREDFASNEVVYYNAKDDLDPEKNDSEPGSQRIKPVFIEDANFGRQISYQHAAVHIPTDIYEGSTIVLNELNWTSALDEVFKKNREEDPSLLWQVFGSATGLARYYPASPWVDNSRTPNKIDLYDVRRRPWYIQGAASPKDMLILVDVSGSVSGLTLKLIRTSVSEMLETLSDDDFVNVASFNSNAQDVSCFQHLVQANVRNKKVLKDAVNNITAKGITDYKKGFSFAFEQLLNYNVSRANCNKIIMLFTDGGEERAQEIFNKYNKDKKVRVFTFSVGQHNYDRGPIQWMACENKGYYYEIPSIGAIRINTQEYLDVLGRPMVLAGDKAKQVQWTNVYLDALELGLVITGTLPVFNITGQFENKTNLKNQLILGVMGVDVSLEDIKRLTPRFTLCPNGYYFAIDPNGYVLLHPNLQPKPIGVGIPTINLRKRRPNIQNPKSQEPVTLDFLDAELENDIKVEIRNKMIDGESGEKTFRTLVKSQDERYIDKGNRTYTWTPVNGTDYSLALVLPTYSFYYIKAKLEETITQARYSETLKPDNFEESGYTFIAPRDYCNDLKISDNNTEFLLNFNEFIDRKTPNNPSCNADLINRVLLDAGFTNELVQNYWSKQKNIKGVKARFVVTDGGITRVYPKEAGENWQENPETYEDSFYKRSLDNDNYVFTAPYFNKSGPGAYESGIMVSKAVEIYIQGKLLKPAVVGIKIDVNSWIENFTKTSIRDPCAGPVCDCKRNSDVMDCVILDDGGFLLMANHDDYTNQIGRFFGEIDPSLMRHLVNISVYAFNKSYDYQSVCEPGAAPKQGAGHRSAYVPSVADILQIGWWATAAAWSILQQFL
T1 sequence (P54284 whole entry, further chain): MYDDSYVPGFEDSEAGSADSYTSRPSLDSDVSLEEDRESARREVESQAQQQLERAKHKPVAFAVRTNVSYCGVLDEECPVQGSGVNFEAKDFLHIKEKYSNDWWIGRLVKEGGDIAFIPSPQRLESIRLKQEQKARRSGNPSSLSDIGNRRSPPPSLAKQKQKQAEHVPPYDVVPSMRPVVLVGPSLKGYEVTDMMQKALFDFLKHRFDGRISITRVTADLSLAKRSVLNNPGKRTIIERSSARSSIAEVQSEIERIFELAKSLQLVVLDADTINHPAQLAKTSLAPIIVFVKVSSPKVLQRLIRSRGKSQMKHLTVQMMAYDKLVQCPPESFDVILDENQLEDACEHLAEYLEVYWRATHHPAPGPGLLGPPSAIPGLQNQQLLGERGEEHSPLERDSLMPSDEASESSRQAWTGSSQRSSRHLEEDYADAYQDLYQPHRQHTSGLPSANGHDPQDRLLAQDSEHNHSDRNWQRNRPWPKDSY
T1 sequence (Q00975 whole entry): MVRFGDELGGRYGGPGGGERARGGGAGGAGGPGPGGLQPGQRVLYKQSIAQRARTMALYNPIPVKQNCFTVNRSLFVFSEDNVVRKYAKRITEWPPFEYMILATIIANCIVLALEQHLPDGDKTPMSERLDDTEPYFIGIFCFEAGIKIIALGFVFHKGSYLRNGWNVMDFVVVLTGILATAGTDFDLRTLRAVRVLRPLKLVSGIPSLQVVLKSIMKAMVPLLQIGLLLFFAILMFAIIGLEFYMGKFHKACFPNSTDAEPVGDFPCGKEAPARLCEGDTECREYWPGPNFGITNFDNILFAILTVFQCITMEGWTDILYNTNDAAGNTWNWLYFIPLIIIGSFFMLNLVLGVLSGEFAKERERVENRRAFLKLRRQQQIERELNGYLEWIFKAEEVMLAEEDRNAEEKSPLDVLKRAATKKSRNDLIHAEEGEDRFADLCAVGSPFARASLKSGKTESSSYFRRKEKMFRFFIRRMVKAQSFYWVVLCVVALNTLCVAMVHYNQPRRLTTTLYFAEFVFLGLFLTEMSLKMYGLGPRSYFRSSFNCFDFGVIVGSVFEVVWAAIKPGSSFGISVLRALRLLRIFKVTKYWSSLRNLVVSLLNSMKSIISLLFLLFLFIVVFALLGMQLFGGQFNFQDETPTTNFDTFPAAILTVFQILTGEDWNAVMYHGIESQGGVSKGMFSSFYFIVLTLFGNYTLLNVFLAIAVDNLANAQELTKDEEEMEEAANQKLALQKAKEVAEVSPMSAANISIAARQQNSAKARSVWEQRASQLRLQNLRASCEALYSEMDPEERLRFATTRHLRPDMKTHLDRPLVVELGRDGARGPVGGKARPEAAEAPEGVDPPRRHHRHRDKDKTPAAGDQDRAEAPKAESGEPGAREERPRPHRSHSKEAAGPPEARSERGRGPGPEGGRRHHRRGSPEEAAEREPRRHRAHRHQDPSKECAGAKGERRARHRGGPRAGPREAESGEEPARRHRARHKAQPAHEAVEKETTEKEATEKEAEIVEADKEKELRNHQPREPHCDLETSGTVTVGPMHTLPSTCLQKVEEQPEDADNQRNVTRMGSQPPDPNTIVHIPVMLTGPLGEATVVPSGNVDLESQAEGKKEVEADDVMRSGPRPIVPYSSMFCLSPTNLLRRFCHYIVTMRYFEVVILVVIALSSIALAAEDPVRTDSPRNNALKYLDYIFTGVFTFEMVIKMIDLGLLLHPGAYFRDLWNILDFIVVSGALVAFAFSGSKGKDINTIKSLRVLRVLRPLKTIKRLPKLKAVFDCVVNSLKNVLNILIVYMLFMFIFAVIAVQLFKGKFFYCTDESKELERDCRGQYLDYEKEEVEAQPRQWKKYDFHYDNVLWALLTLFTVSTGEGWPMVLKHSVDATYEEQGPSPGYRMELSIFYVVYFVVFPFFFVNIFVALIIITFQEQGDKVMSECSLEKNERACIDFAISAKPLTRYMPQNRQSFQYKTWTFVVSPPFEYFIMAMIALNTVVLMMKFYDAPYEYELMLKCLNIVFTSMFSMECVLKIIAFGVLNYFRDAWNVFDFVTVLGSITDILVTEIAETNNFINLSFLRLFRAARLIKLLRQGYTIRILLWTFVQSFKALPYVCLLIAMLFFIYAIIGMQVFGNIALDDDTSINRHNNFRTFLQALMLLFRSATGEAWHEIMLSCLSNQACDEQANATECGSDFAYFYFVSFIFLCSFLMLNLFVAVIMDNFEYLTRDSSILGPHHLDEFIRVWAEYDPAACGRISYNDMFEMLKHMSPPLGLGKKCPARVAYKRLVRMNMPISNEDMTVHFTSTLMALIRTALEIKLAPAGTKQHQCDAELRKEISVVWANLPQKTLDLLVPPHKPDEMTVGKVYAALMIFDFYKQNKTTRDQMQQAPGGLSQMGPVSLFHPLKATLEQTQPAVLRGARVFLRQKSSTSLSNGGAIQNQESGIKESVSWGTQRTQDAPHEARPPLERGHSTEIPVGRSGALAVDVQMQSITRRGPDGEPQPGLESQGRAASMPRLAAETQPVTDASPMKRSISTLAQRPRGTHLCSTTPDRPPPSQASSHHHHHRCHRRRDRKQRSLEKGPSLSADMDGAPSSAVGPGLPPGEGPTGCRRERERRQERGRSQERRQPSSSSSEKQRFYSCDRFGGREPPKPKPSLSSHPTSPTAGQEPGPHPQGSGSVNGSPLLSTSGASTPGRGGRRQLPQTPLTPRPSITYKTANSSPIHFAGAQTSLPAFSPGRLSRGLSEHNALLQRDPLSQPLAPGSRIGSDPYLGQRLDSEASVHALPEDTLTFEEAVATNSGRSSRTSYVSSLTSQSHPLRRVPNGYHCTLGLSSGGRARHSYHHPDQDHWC
As to the kind of experiment: Fluorescence assay for CaV2.2 channels using potassium depolarization to induce channel opening (FLIPR, Fluo 4). The experiment is classed as cell-based. As to conditions: 3 μM test compound; alternative assay buffer 30 mM KCl (inactivated channel state); HEK293 cells stably expressing human CaV2.2. In a few lines:
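HEK293 cells stably co-expressing CaV2.2 with alpha2-delta and beta subunits plus Kir2.3, loaded with 2 μM Fluo 4 and pre-incubated 15 min at 25° C with compound in 1 mM or 30 mM KCl buffer (pH 7.4; latter promotes inactivated state). Depolarized by KCl addition; peak fluorescence amplitude normalized to baseline gives inhibition.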
Consider `CCC1(S(=O)(=O)c2cccc(C(F)(F)F)c2)CCOC(c2nnc(C(F)(F)F)o2)C1` (stereo not drawn) [SC-240, 2-[4-Ethyl-4-[[3-(trifluoromethyl)phenyl]sulfonyl]-tetrahydro-pyran-2-yl]-5-(trifluoromethyl)-[1,3,4]oxadiazole], for which the “Activity Category: %-Inhib (CaV2.2) @3 μM @30 mM KCl” value (“Activity Category: %-Inhib” for short) is “C (%-Inhibition >40% up to ≤75%)”.

For the compound `CCC1(S(=O)(=O)c2cccc(C(F)(F)F)c2)CCOC(c2nnc(C(F)(F)F)o2)C1` (stereo not drawn) [SC-241, 2-[4-Ethyl-4-[[3-(trifluoromethyl)phenyl]sulfonyl]-tetrahydro-pyran-2-yl]-5-(trifluoromethyl)-[1,3,4]oxadiazole], the “Activity Category: %-Inhib” value is given as “B (%-Inhibition >75% up to ≤95%)”.

Take `CC1(S(=O)(=O)c2cccc(C(F)(F)F)c2)CCOC(c2ccc(Cl)cn2)C1` (stereo not drawn) [SC-244, 5-Chloro-2-[4-methyl-4-[[3-(trifluoromethyl)phenyl]sulfonyl]-tetrahydro-pyran-2-yl]-pyridine]: the “Activity Category: %-Inhib” value is on record as “B (%-Inhibition >75% up to ≤95%)”.

In the case of `COc1cc(OC)c(C2CC(C)(S(=O)(=O)c3cccc(C(F)(F)F)c3)CCO2)cn1` (stereo not drawn) [SC-246, 2,4-Dimethoxy-5-[4-methyl-4-[[3-(trifluoromethyl)phenyl]sulfonyl]-tetrahydro-pyran-2-yl]-pyridine], the “Activity Category: %-Inhib” value was “A (%-Inhibition >95%)”.

With `COc1cc(OC(F)F)c(C2CC(C)(S(=O)(=O)c3cccc(C(F)(F)F)c3)CCO2)cn1` (stereo not drawn) [SC-254, 4-(Difluoro-methoxy)-2-methoxy-5-[4-methyl-4-[[3-(trifluoromethyl)phenyl]sulfonyl]-tetrahydro-pyran-2-yl]-pyridine], the “Activity Category: %-Inhib” value is recorded as “A (%-Inhibition >95%)”.

As for `COc1ncc(C2CC(C)(S(=O)(=O)c3cccc(C(F)(F)F)c3)CCO2)cc1F` (stereo not drawn) [SC-256, 3-Fluoro-2-methoxy-5-[4-methyl-4-[[3-(trifluoromethyl)phenyl]sulfonyl]-tetrahydro-pyran-2-yl]-pyridine], the “Activity Category: %-Inhib” value is recorded as “B (%-Inhibition >75% up to ≤95%)”.

On to `COc1cc(F)c(C2CC(C)(S(=O)(=O)c3cccc(C(F)(F)F)c3)CCO2)cn1` (stereo not drawn) [SC-258, 4-Fluoro-2-methoxy-5-[4-methyl-4-[[3-(trifluoromethyl)phenyl]sulfonyl]-tetrahydro-pyran-2-yl]-pyridine], for which the “Activity Category: %-Inhib” value is on record as “A (%-Inhibition >95%)”.

With `COc1cc(C#N)c(C2CC(C)(S(=O)(=O)c3cccc(C(F)(F)F)c3)CCO2)cn1` (stereo not drawn) [SC-260, 2-Methoxy-5-[4-methyl-4-[[3-(trifluoromethyl)phenyl]sulfonyl]-tetrahydro-pyran-2-yl]-isonicotinonitrile], the “Activity Category: %-Inhib” value is recorded as “A (%-Inhibition >95%)”.

Turning to `COc1cc(C#N)c(C2CC(C)(S(=O)(=O)c3cccc(C(F)(F)F)c3)CCO2)cn1` (stereo not drawn) [SC-261, 2-Methoxy-5-[4-methyl-4-[[3-(trifluoromethyl)phenyl]sulfonyl]-tetrahydro-pyran-2-yl]-isonicotinonitrile], the “Activity Category: %-Inhib” value is on record as “C (%-Inhibition >40% up to ≤75%)”.

With `CC1(S(=O)(=O)c2cccc(C(F)(F)F)c2)CCOC(c2ncc(S(C)(=O)=O)cc2OC(F)F)C1` (stereo not drawn) [SC-269, 3-(difluoromethoxy)-2-(4-methyl-4-((3-(trifluoromethyl)phenyl)sulfonyl)tetrahydro-2H-pyran-2-yl)-5-(methylsulfonyl)pyridine], the “Activity Category: %-Inhib” value is “A (%-Inhibition >95%)”.

As to `CC1(S(=O)(=O)c2cccc(C(F)(F)F)c2)CCOC(c2cnc(C(F)(F)F)nc2)C1` (stereo not drawn) [SC-305, 5-[4-Methyl-4-[[3-(trifluoromethyl)phenyl]sulfonyl]-tetrahydro-pyran-2-yl]-2-(trifluoromethyl)-pyrimidine], the “Activity Category: %-Inhib” value is “A (%-Inhibition >95%)”.

The same experiment, now with this note: HEK293, 3 μM test compound; alternative assay buffer 30 mM KCl (inactivated channel state); HEK293 cells stably expressing human CaV2.2; read-out: Activity Category: %-Inhib (CaV2.2) @3 μM @30 mM KCl.
Turning to `C[S+]([O-])c1cnc(C2CC(C)(S(=O)(=O)c3cccc(C(F)(F)F)c3)CCO2)c(Cl)c1` (stereo not drawn) [SC-233, 3-Chloro-5-(methylsulfinyl)-2-[4-methyl-4-[[3-(trifluoromethyl)phenyl]sulfonyl]-tetrahydro-pyran-2-yl]-pyridine], the inhibition at 3 µM fell in the range of 40 to 75%.

With `CC1(S(=O)(=O)c2cccc(C(F)(F)F)c2)CCOC(c2ncc(C(F)F)cc2Cl)C1` (stereo not drawn) [SC-236, 3-Chloro-5-(difluoro-methyl)-2-[4-methyl-4-[[3-(trifluoromethyl)phenyl]sulfonyl]-tetrahydro-pyran-2-yl]-pyridine], the inhibition at 3 µM was 75 to 95%.

In the case of `CCC1(S(=O)(=O)c2cccc(C(F)(F)F)c2)CCOC(c2noc(C3CC3)n2)C1` (stereo not drawn) [SC-238, 5-Cyclopropyl-3-[4-ethyl-4-[[3-(trifluoromethyl)phenyl]sulfonyl]-tetrahydro-pyran-2-yl]-[1,2,4]oxadiazole], the inhibition at 3 µM was 75 to 95%.

Take `CC1(S(=O)(=O)c2cccc(C(F)(F)F)c2)CCOC(c2ccc(Cl)cn2)C1` (stereo not drawn) [SC-243, 5-Chloro-2-[4-methyl-4-[[3-(trifluoromethyl)phenyl]sulfonyl]-tetrahydro-pyran-2-yl]-pyridine]: the inhibition at 3 µM was above 95%.

Turning to `COc1cc(OC)c(C2CC(C)(S(=O)(=O)c3cccc(C(F)(F)F)c3)CCO2)cn1` (stereo not drawn) [SC-245, 2,4-Dimethoxy-5-[4-methyl-4-[[3-(trifluoromethyl)phenyl]sulfonyl]-tetrahydro-pyran-2-yl]-pyridine], the inhibition at 3 µM lay within 75 to 95%.

In the case of `COc1cc(C)c(C2CC(C)(S(=O)(=O)c3cccc(C(F)(F)F)c3)CCO2)cn1` (stereo not drawn) [SC-248, 2-Methoxy-4-methyl-5-[4-methyl-4-[[3-(trifluoromethyl)phenyl]sulfonyl]-tetrahydro-pyran-2-yl]-pyridine], the inhibition at 3 µM lay in the range of 75 to 95%.

In the case of `COc1cc(O)c(C2CC(C)(S(=O)(=O)c3cccc(C(F)(F)F)c3)CCO2)cn1` (stereo not drawn) [SC-251, 2-Methoxy-5-[4-methyl-4-[[3-(trifluoromethyl)phenyl]sulfonyl]-tetrahydro-pyran-2-yl]-pyridin-4-ol], the inhibition at 3 µM was in the range of 40 to 75%.

`COc1cc(OC(F)F)c(C2CC(C)(S(=O)(=O)c3cccc(C(F)(F)F)c3)CCO2)cn1` (stereo not drawn) [SC-253, 4-(Difluoro-methoxy)-2-methoxy-5-[4-methyl-4-[[3-(trifluoromethyl)phenyl]sulfonyl]-tetrahydro-pyran-2-yl]-pyridine]: the inhibition at 3 µM is 75 to 95%.

Consider `COc1ncc(C2CC(C)(S(=O)(=O)c3cccc(C(F)(F)F)c3)CCO2)cc1F` (stereo not drawn) [SC-255, 3-Fluoro-2-methoxy-5-[4-methyl-4-[[3-(trifluoromethyl)phenyl]sulfonyl]-tetrahydro-pyran-2-yl]-pyridine], for which the inhibition at 3 µM was above 95%.

With `COc1cc(F)c(C2CC(C)(S(=O)(=O)c3cccc(C(F)(F)F)c3)CCO2)cn1` (stereo not drawn) [SC-257, 4-Fluoro-2-methoxy-5-[4-methyl-4-[[3-(trifluoromethyl)phenyl]sulfonyl]-tetrahydro-pyran-2-yl]-pyridine], the inhibition at 3 µM fell in the range of 75 to 95%.

For `Cc1cc(S(C)(=O)=O)cnc1C1CC(C)(S(=O)(=O)c2cccc(C(F)(F)F)c2)CCO1` (stereo not drawn) [SC-262, 3-Methyl-5-methylsulfonyl-2-[4-methyl-4-[[3-(trifluoromethyl)phenyl]sulfonyl]-tetrahydro-pyran-2-yl]-pyridine], the inhibition at 3 µM lay in the range of 75 to 95%.

On to `CC1(S(=O)(=O)c2cccc(C(F)F)c2)CCOC(c2ncc(S(C)(=O)=O)cc2Cl)C1` (stereo not drawn) [SC-265, 3-Chloro-2-[4-[[3-(difluoro-methyl)-phenyl]sulfonyl]-4-methyl-tetrahydro-pyran-2-yl]-5-methylsulfonyl-pyridine], for which the inhibition at 3 µM lay within 40 to 75%.

Take `CC1(S(=O)(=O)c2cccc(C(F)(F)F)c2)CCOC(c2ncc(OC(F)F)cc2S(C)(=O)=O)C1` (stereo not drawn) [SC-266, 5-(difluoromethoxy)-2-(4-methyl-4-((3-(trifluoromethyl)phenyl)sulfonyl)tetrahydro-2H-pyran-2-yl)-3-(methylsulfonyl)pyridine]: the inhibition at 3 µM was above 95%.

As for `CC1(S(=O)(=O)c2cccc(C(F)(F)F)c2)CCOC(c2ncc(S(C)(=O)=O)cc2OC(F)F)C1` (stereo not drawn) [SC-268, 3-(difluoromethoxy)-2-(4-methyl-4-((3-(trifluoromethyl)phenyl)sulfonyl)tetrahydro-2H-pyran-2-yl)-5-(methylsulfonyl)pyridine], the inhibition at 3 µM lay in the range of 75 to 95%.

For `CC1(S(=O)(=O)c2cccc(C(F)(F)F)c2)CCOC(c2ncc(S(C)(=O)=O)cc2C2CC2)C1` (stereo not drawn) [SC-270, 3-cyclopropyl-2-(4-methyl-4-(3-(trifluoromethyl)phenylsulfonyl)tetrahydro-2H-pyran-2-yl)-5-(methylsulfonyl)pyridine], the inhibition at 3 µM lay in the range of 75 to 95%.

As for `CC(C)Oc1ccc(C2CC(C)(S(=O)(=O)c3cccc(C(F)(F)F)c3)CCO2)cn1` (stereo not drawn) [SC-300, 2-Isopropoxy-5-[4-methyl-4-[[3-(trifluoromethyl)phenyl]sulfonyl]-tetrahydro-pyran-2-yl]-pyridine], the inhibition at 3 µM is above 95%.

For the compound `CC1(S(=O)(=O)c2cccc(C(F)(F)F)c2)CCOC(c2cnc(C(F)(F)F)nc2)C1` (stereo not drawn) [SC-304, 5-[4-Methyl-4-[[3-(trifluoromethyl)phenyl]sulfonyl]-tetrahydro-pyran-2-yl]-2-(trifluoromethyl)-pyrimidine], the inhibition at 3 µM lay within 75 to 95%.

On to `CC1(S(=O)(=O)c2cccc(C(F)(F)F)c2)CCOC(c2ccc(C(F)(F)F)cn2)C1` (stereo not drawn) [SC-309, 2-[4-Methyl-4-[[3-(trifluoromethyl)phenyl]sulfonyl]-tetrahydro-pyran-2-yl]-5-(trifluoromethyl)-pyridine], for which the inhibition at 3 µM is above 95%.

`CCC1(S(=O)(=O)c2cccc(C(F)(F)F)c2)CCOC(c2cccnc2C)C1` (stereo not drawn) [SC-312, 3-[4-Ethyl-4-[[3-(trifluoromethyl)phenyl]sulfonyl]-tetrahydro-pyran-2-yl]-2-methyl-pyridine]: the inhibition at 3 µM lay in the range of 40 to 75%.
